Test results reported in patent US11230555B2, “Bicyclic RORγ modulators” (Escalier Biosciences B.V., priority 2018, dated 2022).

Biological target: T1, RORγt (Homo sapiens, UniProt P51449)
T1 construct: purchased reporter-cell kit
T1 sequence (P51449 269-508 limits assumed): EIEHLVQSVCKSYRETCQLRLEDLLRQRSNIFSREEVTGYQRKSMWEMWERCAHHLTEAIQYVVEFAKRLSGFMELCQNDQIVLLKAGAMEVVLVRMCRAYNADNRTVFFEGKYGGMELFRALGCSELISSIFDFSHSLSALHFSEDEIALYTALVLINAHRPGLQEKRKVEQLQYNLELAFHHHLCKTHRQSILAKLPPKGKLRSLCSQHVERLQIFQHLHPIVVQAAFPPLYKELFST
Assay: Gal4 ligand binding assay (RORγt Gal fusion reporter assay)
Format: cell-based
Settings: inverse agonists, luciferase reporter, 24h
Procedure, shortened: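 GAL4-DBD/RORγ(t) fusion stably expressed with a Gal4-UAS luciferase reporter in […] cells, which are constitutively active. Compounds were given as 2× media with 10 points from 60 μM to 3 nM (final DMSO 0.2%) for 24 h at 37° C, 5% CO2. Luminescence was normalized to DMSO control wells.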

**Q.** With `Cc1cc(CN2CC3CCC(C2)N3S(=O)(=O)Cc2ccccc2)ccc1-c1ccc(C(O)(C(F)(F)F)C(F)(F)F)cc1` [Example 65, 2-(4′-((8-(benzylsulfonyl)-3,8-diazabicyclo[3.2.1]octan-3-yl)methyl)-2′-methyl-[1,1′-biphenyl]-4-yl)-1,1,1,3,3,3-hexafluoropropan-2-ol] as the compound, how does the IC50 read?
**A.** > 250 nM

**Q.** With `CCc1c(F)c(CN2CC3CCC(C2)N3S(C)(=O)=O)cc(F)c1-c1ccc(C(O)(C(F)(F)F)C(F)(F)F)cc1F` [Example 23, 2-(2′-ethyl-2,3′,6′-trifluoro-4′-((8-(methylsulfonyl)-3,8-diazabicyclo[3.2.1]octan-3-yl)methyl)-[1,1′-biphenyl]-4-yl)-1,1,1,3,3,3-hexafluoropropan-2-ol] as the compound, how does the IC50 read?
**A.** < 50 nM

**Q.** How did the IC50 turn out when `CCc1cc(CN2CC3CCC(C2)N3S(C)(=O)=O)cc(F)c1-c1ccc(C(O)(C(F)(F)F)C(F)(F)F)cc1F` [Example 17, 2-(2′-ethyl-2,6′-difluoro-4′-((8-(methylsulfonyl)-3,8-diazabicyclo[3.2.1]octan-3-yl)methyl)-[1,1′-biphenyl]-4-yl)-1,1,1,3,3,3-hexafluoropropan-2-ol] was run?
**A.** < 50 nM

**Q.** For `CS(=O)(=O)N1C2CCC1CN(Cc1ccc(-c3ccc(C(O)(C(F)(F)F)C(F)(F)F)cc3)c(Br)c1)C2` [Example 40, 2-(2′-bromo-4′-((8-(methylsulfonyl)-3,8-diazabicyclo[3.2.1]octan-3-yl)methyl)-[1,1′-biphenyl]-4-yl)-1,1,1,3,3,3-hexafluoropropan-2-ol], which IC50 is on record?
**A.** 50 to 250 nM

**Q.** With `Cc1cc(CN2CC3CCC(C2)N3S(=O)(=O)C(F)(F)F)ccc1-c1ccc(C(O)(C(F)(F)F)C(F)(F)F)cc1` [Example 60, 1,1,1,3,3,3-hexafluoro-2-(2′-methyl-4′-((8-((trifluoromethyl)sulfonyl)-3,8-diazabicyclo[3.2.1]octan-3-yl)methyl)-[1,1′-biphenyl]-4-yl)propan-2-ol] as the compound, how does the IC50 read?
**A.** > 250 nM
